Measured values: US6673839B1, “Pharmaceutical compositions with antitumour activity” (Universita' Degli Studi di Catania, priority 1998, dated 2004)
Structures can show the parent of a compound that is named as a salt.

Assays:
[1] = tested on: Cells from Larynx Carcinoma Explant; test: In vitro short-term chemosensitivity assay (MTT); format: cell-based, human
Experimental: (§1) The effects of L-aC on cells from 4 primitive epidermoid carcinomas of the larynx and 1 primitive undifferentiated carcinoma of the nasopharynx were tested.
(§2) Tissue fragments from the tumour mass were mechanically dissociated in Hank's solutions adding an antibiotic and an antifungal to obtain a cell monosuspension free of agglomerates. The resulting suspension was centrifuged at 1200 rpm for 5 minutes and the pellet was resuspended in MEM culture medium supplemented with 10% of patient serum, to obtain a concentration of 10^5 cells/ml. Subsequently, 180 μl of the resulting suspension were dispensed in microplate wells and incubated under 5% CO2 atmosphere at 37° C. for 3 days. After that, the antitumor medicaments were added in the amount of 20 μl for each well, at a concentration of 0.1×, 1× and 10× the maximum serum concentrations that can usually be reached in clinical practice. 24 h after the beginning of the exposure to the antitumour medicament, 100 μl of MTT were added, and after 4 h, a further 150 μl of dimethylsulfoxide were added.
(§3) The optical density was evaluated by a Uniscan microspectrophotometer with a […] wavelength filter. Cytotoxicity was evaluated as percentage of the optical density of the treated sample compared with the optical density of the control.
(§4) Bleomycin (BLEC), […] (CDDP), 5-fluoruracil (5-FU), vincristine (VCR), epidoxorubicin (Epi-Dx) and methotrexate (MTX) were tested for comparison purposes.
(§5) L-aC was tested at the following concentrations: 0.2-2-20 mg/ml.
In vitro short-term chemosensitivity assay (according to Hill and coll.)
(Cell Vitality Percentage After Exposure to the Antitumoral)—Raw Data
(Cells from Larynx Carcinoma Explant)

[2] = tested on: cells from 4 primitive epidermoid carcinomas of the larynx and 1 primitive undifferentiated carcinoma of the nasopharynx; test: In vitro short-term chemosensitivity assay (MTT), all five explants; format: cell-based, human
Experimental: as §1, §2, §3, §4, §5

CC(=O)OC(CC(=O)[O-])C[N+](C)(C)C [L-aC, L-acetylcarnitine hydrochloride]
Cell Vitality Percentage After Exposure ([1]; Table 2 explant, 0.1x): 62%
Cell Vitality Percentage After Exposure ([1]; Table 2 explant, 1x): 32%
Cell Vitality Percentage After Exposure ([1]; Table 2 explant, 10x): 15%
Cell Vitality Percentage After Exposure ([1]; Table 3 explant, 0.1x): 42%
Cell Vitality Percentage After Exposure ([1]; Table 3 explant, 1x): 24%
Cell Vitality Percentage After Exposure ([1]; Table 3 explant, 10x): 7.2%
Cell Vitality Percentage After Exposure ([1]; Table 4 explant, 0.1x): 3.8%
Cell Vitality Percentage After Exposure ([1]; Table 4 explant, 1x): 1.5%
Cell Vitality Percentage After Exposure ([1]; Table 4 explant, 10x): 1.4%
Cell Vitality Percentage After Exposure ([1]; Table 5 explant, 0.1x): 63%
Cell Vitality Percentage After Exposure ([1]; Table 5 explant, 1x): 37%
Cell Vitality Percentage After Exposure ([1]; Table 5 explant, 10x): 32%
IC50 ([2]; Homo sapiens, read-out: IC 50 concentrations): 20 to 700 µg/mL
IC90 ([2]; Homo sapiens, read-out: IC 90 concentrations): 700 to 20000 µg/mL
most active medicaments (cases out of 5) ([2]; five explants): 4/5
